From US20120122840A1, “COMPOUNDS AND THERAPEUTIC USES THEREOF” (Myrexis, Inc., priority 2009, published 2012)

Assays:
[1] = tested on: HCT116 colon cancer cell line; experiment: HCT116 cytotoxicity assay (WST-1, 72 hours); assay type: cell-based; details: Homo sapiens, HCT-116, read-out: IC50 (concentration resulting in a 50% reduction in cell viability), HCT116 cells
Method: The compounds of the invention were tested in the following cytotoxicity assay to detect anti-cancer activity. This assay determined viability of various cell lines, when treated with a test compound, by determining the metabolic activity of proliferating cells using the tetrazolium salt WST. While assays conducted with HCT116 colon cancer cell line cells were generally used to compare the relative efficacy of the compounds being tested, OVCAR8 and NCI/ADR-Res cell lines were also used according to the same procedure.
MATERIALS: • A. 10% FBS/L-glutamine/NEAA/HEPES/Na-Pyruvate/RPMI, phenol-free; • B. HCT116, OVCAR8 or NCI/ADR-Res cell lines (new vial thawed every 8-10 weeks); • C. Test compounds, typically 50 mM stocks diluted in DMSO; • D. Clear, flat, TC-surface bottomed 96-well microplates (Corning #3595); • E. WST-1: Dojindo, W201 (powder).
METHODS: • 1. […]
• b) Without removing culture medium, 0.4 μl of a 250× concentrated solution of test compound in growth media was added to HCT116, OVCAR8 or NCI/ADR-Res plates. Plates were returned to incubator and left to incubate for 72 hours. • c) 10 μL of prepared WST-1 was added to treated cells and allowed to incubate at 37° C. for 90 minutes. • d) Absorbances at 490 and 650 nm were read and viability of treated cells relative to DMSO control was determined.

TTK = target: T1, TTK (Homo sapiens, UniProt P33981); experiment: TTK inhibition assay ([γ-33P]ATP transfer to phosphorylated MBP); assay type: biochemical; design: A. Recombinant TTK enzyme; details: read-out: inhibition of the protein kinase activity of TTK, IC50
T1 sequence (P33981 1-857): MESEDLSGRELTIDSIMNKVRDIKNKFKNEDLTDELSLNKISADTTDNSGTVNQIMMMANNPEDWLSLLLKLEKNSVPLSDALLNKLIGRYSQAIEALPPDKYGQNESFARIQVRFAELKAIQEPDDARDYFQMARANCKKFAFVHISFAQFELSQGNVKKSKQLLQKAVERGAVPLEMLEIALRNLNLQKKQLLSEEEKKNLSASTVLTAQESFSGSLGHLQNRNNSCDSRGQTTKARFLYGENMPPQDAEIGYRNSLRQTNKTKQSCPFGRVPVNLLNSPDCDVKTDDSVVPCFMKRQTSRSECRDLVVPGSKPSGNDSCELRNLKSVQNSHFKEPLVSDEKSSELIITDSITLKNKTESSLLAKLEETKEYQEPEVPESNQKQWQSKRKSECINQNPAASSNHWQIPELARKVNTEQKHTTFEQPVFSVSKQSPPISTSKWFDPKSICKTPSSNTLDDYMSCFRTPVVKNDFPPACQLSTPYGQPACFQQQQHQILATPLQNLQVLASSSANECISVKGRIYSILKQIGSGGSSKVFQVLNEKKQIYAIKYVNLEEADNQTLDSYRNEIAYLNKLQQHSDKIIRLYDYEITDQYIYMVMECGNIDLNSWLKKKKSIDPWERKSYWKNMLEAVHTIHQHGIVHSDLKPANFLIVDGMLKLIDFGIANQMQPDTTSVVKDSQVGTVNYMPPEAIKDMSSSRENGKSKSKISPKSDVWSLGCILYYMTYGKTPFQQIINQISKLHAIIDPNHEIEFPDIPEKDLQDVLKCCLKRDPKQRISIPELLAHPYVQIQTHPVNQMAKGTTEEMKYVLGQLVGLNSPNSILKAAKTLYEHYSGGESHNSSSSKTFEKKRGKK
Method: The compounds of the invention were also tested in the following assay to determine TTK-inhibitory activity. This assay measures transfer of radioactive phosphate from ATP to a protein substrate in the presence or absence of a test compound.
MATERIALS: • A. Recombinant TTK enzyme; • B. Phosphorylated myelin basic protein (MBP); • C. [γ-^33P]ATP: 1 mCi/100 μL; • D. Positive Control: a proprietary compound known to have […] in this assay.
Final concentrations of reaction mixture components (50 μl total volume): 50 mM Tris-HCl, pH 7.5; 0.01% Triton X-100; 10 mM MgCl2; 25 ng TTK (˜4 nM); 5 μM Phosphorylated MBP; 40 μM ATP (1 μCi/well, adjusted ATP specific activity according to strength of radiolabeled ATP).
Mixes were assembled in the wells of a 96-well polypropylene plate as follows: 1 μL 50× compound to be tested; 39 μL 1.282× Reaction Mix; 10 μL 5×ATP Mix.
The following reaction/assay steps were then performed: • 1. Mix thoroughly and incubate at room temperature for 45 minutes; • 2. Add 70 μL/well, except in background wells, of 3% phosphoric acid to terminate reaction, and transfer 100 μL to P81 filter plate; • 3. Wash with 1% phosphoric acid, then dry the P81 filter plate completely; • 4. Add 100 μL/well MicroSint-20 (PerkinElmer #6013621) and seal; • 5.

IC50 (TTK): 0.008 µM
Structure (SMILES): NCCCOc1ccc(Nc2nc(NC3CCCCC3)c3nc[nH]c3n2)cc1 [N2-[4-(3-aminopropoxy)phenyl]-N-6-cyclohexyl-9H-purine-2,6-diamine]
IC50 [1]: 1.2 µM
